From patent US11939320B2, “Modulators of the integrated stress pathway” (Calico Life Sciences LLC, priority 2017, dated 2024)

System: HEK293T cells carrying the ATF4 luciferase reporter
Experiment: ATF4-Luc assay (in vitro model of VWMD)
Format: cell-based
Conditions: Homo sapiens, HEK-293T; HEK293T cells with ATF4 5'-UTR firefly luciferase reporter; 1 μg/mL tunicamycin; 7 hours; One Glo luminescence
Protocol: In order to test exemplary compounds of the invention in a cellular context, a stable VWMD cell line was first constructed. The ATF4 reporter was prepared by fusing the human full-length ATF4 5′-UTR (NCBI Accession No. BC022088.2) in front of the firefly luciferase (FLuc) coding sequence lacking the initiator methionine as described in Sidrauski et al (eLife 2013). The construct was used to produce recombinant retroviruses using standard methods and the resulting viral supernatant was used to transduce HEK293T cells, which were then subsequently selected with puromycin to generate a stable cell line.
HEK293T cells carrying the ATF4 luciferase reporter were plated on polylysine coated 384-well plates (Greiner Bio-one) at 30,000 cells per well. Cells were treated the next day with 1 μg/mL tunicamycin and 200 nM of a compound of Formula (I) for 7 hours. Luminescence was measured using One Glo (Promega) as specified by the manufacturer. Cells were maintained in DMEM with L-glutamine supplemented with 10% heat-inactivated FBS (Gibco) and Antibiotic-Antimycotic solution (Gibco).
Table 2 below summarizes the EC50 data obtained using the ATF4-Luc assay for exemplary compounds of the invention.

SMILES | EC50 [µM]
O=C(COc1ccc(Cl)c(F)c1)N[C@@H]1CC[C@@H](C(=O)NCc2nc3cc(F)c(F)cc3[nH]2)OC1 [Compound 156, (2S,5R)-5-[2-(4-chloro-3-fluorophenoxy)acetamido]-N-[(5,6-difluoro-1H-benzimidazol-2-yl)methyl]oxane-2-carboxamide] | 0.05 to 0.25
O=C(COc1ccc(Cl)c(F)c1)N[C@@H]1CC[C@@H](C(=O)NCc2ccc(OC(F)(F)F)cc2)OC1 [Compound 157, (2S,5R)-5-[2-(4-chloro-3-fluorophenoxy)acetamido]-N-{[4-(trifluoromethoxy)phenyl]methyl}oxane-2-carboxamide] | 0.05 to 0.25
O=C(COc1ccc(Cl)c(F)c1)N[C@@H]1CC[C@@H](C(=O)NCc2ccc(C(F)(F)F)cc2)OC1 [Compound 158, (2S,5R)-5-[2-(4-chloro-3-fluorophenoxy)acetamido]-N-{[4-(trifluoromethyl)phenyl]methyl}oxane-2-carboxamide] | 0.05 to 0.25
O=C(COc1ccc(Cl)c(F)c1)N[C@H]1CC[C@H](C(=O)NCc2ccc(C(F)(F)F)cn2)OC1 [Compound 159, (2R,5S)-5-[2-(4-chloro-3-fluorophenoxy)acetamido]-N-{[5-(trifluoromethyl)pyridin-2-yl]methyl}oxane-2-carboxamide] | 0.01 to 0.05
O=C(COc1ccc(Cl)c(F)c1)N[C@@H]1CC[C@@H](C(=O)N2CC(c3ccc(Cl)cc3)C2)OC1 [Compound 160, 2-(4-chloro-3-fluorophenoxy)-N-{(3R,6S)-6-[3-(4-chlorophenyl)azetidine-1-carbonyl]oxan-3-yl}acetamide] | 0.01 to 0.05
O=C(COc1ccc(Cl)c(F)c1)NC1CCC(C(=O)NCc2ccc(C(F)(F)F)cn2)OC1 (centres unmarked) [Compound 166, 5-[2-(4-chloro-3-fluorophenoxy)acetamido]-N-{[5-(trifluoromethyl)pyridin-2-yl]methyl}oxane-2-carboxamide] | > 2
O=C(COc1ccc(Cl)c(F)c1)N[C@@H]1CC[C@@H](C(=O)NCc2ccc3c(c2)OC(F)(F)O3)OC1 [Compound 167, (2S,5R)-5-[2-(4-chloro-3-fluorophenoxy)acetamido]-N-[(2,2-difluoro-2H-1,3-benzodioxol-5-yl)methyl]oxane-2-carboxamide] | 0.05 to 0.25
O=C(COc1ccc(Cl)c(F)c1)N[C@H]1C[C@H](C(=O)Nc2ccc(OC(F)F)nc2)C1 [Compound 168, (1r,3r)-3-[2-(4-chloro-3-fluorophenoxy)acetamido]-N-[6-(difluoromethoxy)pyridin-3-yl]cyclobutane-1-carboxamide] | > 2
O=C(COc1ccc(Cl)c(F)c1)N[C@H]1C[C@H](C(=O)NCc2ccc(Cl)cc2)C1 [Compound 169, (1r,3r)-3-[2-(4-chloro-3-fluorophenoxy)acetamido]-N-[(4-chlorophenyl)methyl]cyclobutane-1-carboxamide] | > 2
O=C(COc1ccc(Cl)c(F)c1)N[C@H]1CC[C@H](C(=O)NCc2cc(OC3CCC3)ccn2)CC1 [Compound 170, (1r,4r)-4-[2-(4-chloro-3-fluorophenoxy)acetamido]-N-{[4-(cyclobutyloxy)pyridin-2-yl]methyl}cyclohexane-1-carboxamide] | > 2
O=C(COc1ccc(Cl)c(F)c1)N[C@H]1CC[C@H](C(=O)NCc2cc(C(F)(F)F)ccn2)CC1 [Compound 171, (1r,4r)-4-[2-(4-chloro-3-fluorophenoxy)acetamido]-N-{[4-(trifluoromethyl)pyridin-2-yl]methyl}cyclohexane-1-carboxamide] | 0.05 to 0.25
NC(=O)c1ccc(CNC(=O)[C@H]2CC[C@H](NC(=O)COc3ccc(Cl)c(F)c3)CC2)nc1 [Compound 172, 6-[({(1r,4r)-4-[2-(4-chloro-3-fluorophenoxy)acetamido]cyclohexane-1-carbonyl}amino)methyl]pyridine-3-carboxamide] | > 2
N#Cc1ccc(CNC(=O)[C@H]2CC[C@H](NC(=O)COc3ccc(Cl)c(Cl)c3)CC2)nc1 [Compound 173, (1r,4r)-N-[(5-cyanopyridin-2-yl)methyl]-4-[2-(3,4-dichlorophenoxy)acetamido]cyclohexane-1-carboxamide] | 0.05 to 0.25
O=C(COc1ccc(Cl)c(Cl)c1)N[C@@H]1CC[C@@H](C(=O)NCc2ccc(C(F)(F)F)cn2)OC1 [Compound 174, (2S,5R)-5-[2-(3,4-dichlorophenoxy)acetamido]-N-{[5-(trifluoromethyl)pyridin-2-yl]methyl}oxane-2-carboxamide] | 0.01 to 0.05
O=C(COc1ccc(Cl)c(Cl)c1)N[C@H]1CC[C@H](C(=O)NCc2ccc(Cl)cn2)CC1 [Compound 175, (1r,4r)-N-[(5-chloropyridin-2-yl)methyl]-4-[2-(3,4-dichlorophenoxy)acetamido]cyclohexane-1-carboxamide] | 0.05 to 0.25
O=C(COc1ccc(Cl)c(F)c1)N[C@H]1CC[C@H](C(=O)NCc2ccc(Cl)cn2)CC1 [Compound 176, (1r,4r)-4-[2-(4-chloro-3-fluorophenoxy)acetamido]-N-[(5-chloropyridin-2-yl)methyl]cyclohexane-1-carboxamide] | > 2
O=C(COc1ccc(Cl)c(F)c1)N[C@H]1CC[C@H](C(=O)Nc2ccc(OC(F)(F)F)nc2)CC1 [Compound 177, (1r,4r)-4-[2-(4-chloro-3-fluorophenoxy)acetamido]-N-[6-(trifluoromethoxy)pyridin-3-yl]cyclohexane-1-carboxamide] | < 0.01
O=C(COc1ccc(Cl)c(F)c1)N[C@H]1CC[C@H](C(=O)NCCOc2ccc(Cl)c(F)c2)CC1 [Compound 178, (1r,4r)-4-[2-(4-chloro-3-fluorophenoxy)acetamido]-N-[2-(4-chloro-3-fluorophenoxy)ethyl]cyclohexane-1-carboxamide] | 0.01 to 0.05
O=C(COc1ccc(Cl)c(F)c1)N[C@H]1CC[C@H](C(=O)NCc2ccc3c(c2)OC(F)(F)O3)CC1 [Compound 179, (1r,4r)-4-[2-(4-chloro-3-fluorophenoxy)acetamido]-N-[(2,2-difluoro-2H-1,3-benzodioxol-5-yl)methyl]cyclohexane-1-carboxamide] | 0.01 to 0.05
O=C(COc1ccc(Cl)c(Cl)c1)N[C@H]1CC[C@H](C(=O)N(CCO)Cc2ccc(Cl)c(F)c2)CC1 [Compound 180, (1r,4r)-N-[(4-chloro-3-fluorophenyl)methyl]-4-[2-(3,4-dichlorophenoxy)acetamido]-N-(2-hydroxyethyl)cyclohexane-1-carboxamide] | 0.5 to 2
O=C(COc1ccc(Cl)c(F)c1)N[C@H]1CC[C@H](C(=O)N(CCO)Cc2ccc(Cl)c(F)c2)CC1 [Compound 181, (1r,4r)-4-[2-(4-chloro-3-fluorophenoxy)acetamido]-N-[(4-chloro-3-fluorophenyl)methyl]-N-(2-hydroxyethyl)cyclohexane-1-carboxamide] | 0.5 to 2
O=C(COc1ccc(Cl)c(Cl)c1)N[C@H]1CC[C@H](C(=O)NCc2cc(CO)ccn2)CC1 [Compound 182, (1r,4r)-4-[2-(3,4-dichlorophenoxy)acetamido]-N-{[4-(hydroxymethyl)pyridin-2-yl]methyl}cyclohexane-1-carboxamide] | > 2
O=C(COc1ccc(Cl)c(Cl)c1)N[C@H]1CC[C@H](C(=O)NCc2ccc(C(F)(F)F)cn2)CC1 [Compound 183, (1r,4r)-4-[2-(3,4-dichlorophenoxy)acetamido]-N-{[5-(trifluoromethyl)pyridin-2-yl]methyl}cyclohexane-1-carboxamide] | < 0.01
